The source of these data is patent US9822137B2, “Phosphonucleosides useful in the treatment of viral disorders” (UNIVERSITY COLLEGE CORK, priority 2012, dated 2017).

Values after ≈ are worked out from the molar mass of the structure shown. A value given as a limit tells only on which side of the number the result lay.

Data set [1] is described as follows: chemical stability on storage / in solution. The class given is physicochemical. The note with it: sample checked after 1 year.
For data set [2], the target named is HIV-1 reverse transcriptase (Human immunodeficiency virus type 1 group M subtype B, UniProt P04585). Kind of data set: cell-free HIV-1 RT assay with artificial homopolymeric template/primer and [3H]dNTP. The class given is biochemical. The procedure: To prepare the template/primers for the RT experiments, 0.15 mM poly(U), poly(A), and poly(I) were mixed with an equal volume of 0.0375 mM oligo(dA), oligo(dT), and oligo(dC), respectively. The final concentrations of the templates in the RT reaction mixture were 0.015 mM. The reaction mixture (50 μl) contained 50 mM Tris.HCl (pH 7.8), 5 mM dithiothreitol, 300 mM glutathione, 500 μM EDTA, 150 mM KCl, 5 mM MgCl2, 1.25 μg of bovine serum albumin, an appropriate concentration of labeled (tritiated) substrate dTTP, dCTP, or dATP (2 μCi/assay), a fixed concentration of the template/primer poly(A).oligo(dT) (0.015 mM), poly(I).oligo(dC) (0.015 mM), and poly(U).oligo(dA) (0.015 mM), 0.06% Triton X-100, 10 μl of inhibitor solution (containing various concentrations of the compounds), and 1 μl of the RT preparation. The reaction mixtures were incubated at 37° C. for 30 min, at which time 100 μl of yeast RNA (1 mg/ml) and 1 ml of Na4P2O7 (0.02 M) in trichloroacetic acid (5% v/v) were added. The solutions were kept on ice for 30 min, after which the acid-insoluble material was washed and analyzed for radioactivity.

In data set [3] the target is HIV-RT (Human immunodeficiency virus type 1 group M subtype B, UniProt P04585). The note with it: cell-free HIV-RT assay, literature, not a direct comparison; cited from earlier work.

Broadly, the IC50 is the concentration that gives 50% inhibition. Consider `Nc1ncnc2c1ncn2[C@@H]1CC[C@H](OC(C(=O)O)P(=O)(O)O)C1` (relative stereo) [Compound 11d, cis-9-{4-[Carboxy(phosphono)methoxy]cyclopentan-1-yl}adenine], for which the “degradation of stored sample” value in data set [1] is on record as roughly 10%. The IC50 was 0.274 µM in data set [2] (IC50, HIV-RT catalysed incorporation of [3H]dATP / polyrU.dA, substrate [3H]dATP, template/primer poly rU.oligo dA); greater than 560 µM in data set [2] (IC50, HIV-RT catalysed incorporation of [3H]dCTP / polyrI.dC, substrate [3H]dCTP, template/primer poly rI.oligo dC); no less than 560 µM in data set [2] (IC50, HIV-RT catalysed incorporation of [3H]dTTP / polyrA.dT, substrate [3H]dTTP, template/primer poly rA.oligo dT). In addition, the “inhibition of incorporation of [3H]dATP in poly rU/oligo dA” value in data set [2] ([3H]dATP, poly rU/oligo dA, 11a and 11b at 200 μg/mL) is “potent inhibitor”.

In the case of `Cc1cn([C@H]2C[C@H](N=[N+]=[N-])[C@@H](CO)O2)c(=O)[nH]c1=O` [AZT], in data set [3], the “IC50 anti-HIV-RT activity reported by McClure” value was 0.1 µg/mL (≈ 0.374 µM).
